This is an account of results in PMC6158709, “Chemical genetic inhibition of DEAD-box proteins using covalent complementarity” (Nucleic Acids Research, 2018).

Test [1] concerns the target T1, Dbp2 (Saccharomyces cerevisiae, UniProt P24783, S161C).
T1 construct: full-length, expressed in E. coli BL21 (DE3) as 6xHis-SUMO fusion, incubated with SUMO protease
Kind of test: RNA duplex unwinding assay. It is filed as biochemical. To be noted: covalent; 0.5 μM enzyme, 2 mM ATP/MgCl2, pH 7.5, 5 min pre-incubation.

Test [2] deals with T2, HA-eIF4A^ES (Saccharomyces cerevisiae, UniProt P10081).
T2 construct: gene TIF1; HA-tagged ES mutant in yeast lysate, immunoprecipitated after labelling
T2 sequence (P10081 2-395): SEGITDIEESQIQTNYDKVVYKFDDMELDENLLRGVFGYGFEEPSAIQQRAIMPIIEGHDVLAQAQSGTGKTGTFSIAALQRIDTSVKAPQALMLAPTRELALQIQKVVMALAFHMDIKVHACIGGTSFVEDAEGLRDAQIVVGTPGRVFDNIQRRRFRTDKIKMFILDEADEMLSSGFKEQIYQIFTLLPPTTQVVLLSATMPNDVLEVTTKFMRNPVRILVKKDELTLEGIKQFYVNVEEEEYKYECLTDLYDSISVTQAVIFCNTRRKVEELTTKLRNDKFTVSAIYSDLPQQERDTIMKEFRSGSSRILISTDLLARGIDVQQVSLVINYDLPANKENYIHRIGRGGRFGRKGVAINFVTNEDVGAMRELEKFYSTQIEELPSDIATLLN
Kind of test: competition of N-propargylmaleimide labelling, click TAMRA, in gel fluorescence after HA immunoprecipitation. To be noted: covalent; yeast lysate, 10 μM AMP-acrylate followed by 10 μM NPM. The test is classed as biochemical.

The target of test [3] is T3, DDX3 (132-406) (Homo sapiens, UniProt O00571).
T3 construct: gene DDX3X; truncated, residues 132-406, recombinant, purified as previously described
T3 sequence (O00571 132-406): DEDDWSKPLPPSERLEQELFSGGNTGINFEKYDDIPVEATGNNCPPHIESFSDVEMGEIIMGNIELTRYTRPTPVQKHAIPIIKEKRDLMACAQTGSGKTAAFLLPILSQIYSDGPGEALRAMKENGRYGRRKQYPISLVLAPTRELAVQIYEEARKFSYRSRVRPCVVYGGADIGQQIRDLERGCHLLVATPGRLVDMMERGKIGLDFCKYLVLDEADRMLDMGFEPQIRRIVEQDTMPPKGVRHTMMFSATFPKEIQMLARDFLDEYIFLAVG
Kind of test: differential scanning fluorimetry. It is filed as binding. The following applies: saturating AMP; 4 μM protein, pH 7.5, 5 mM MgCl2.

In test [4] the target is T4, DDX3 (132-607) (Homo sapiens, UniProt O00571).
T4 construct: gene DDX3X; helicase core, residues 132-607, recombinant, purified as previously described
T4 sequence (O00571 132-607): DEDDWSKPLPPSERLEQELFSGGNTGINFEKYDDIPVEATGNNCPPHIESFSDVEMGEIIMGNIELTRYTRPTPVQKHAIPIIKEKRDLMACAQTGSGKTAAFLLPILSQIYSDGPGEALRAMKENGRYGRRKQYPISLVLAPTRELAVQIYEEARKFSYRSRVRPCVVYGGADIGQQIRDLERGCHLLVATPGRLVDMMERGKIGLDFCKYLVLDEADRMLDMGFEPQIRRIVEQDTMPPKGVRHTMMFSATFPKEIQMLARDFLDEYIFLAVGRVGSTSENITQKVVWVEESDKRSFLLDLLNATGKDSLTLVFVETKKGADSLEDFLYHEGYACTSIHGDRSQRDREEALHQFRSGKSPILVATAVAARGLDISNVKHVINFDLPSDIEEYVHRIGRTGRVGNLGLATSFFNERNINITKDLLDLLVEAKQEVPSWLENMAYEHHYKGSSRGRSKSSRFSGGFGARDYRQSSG
Put plainly: coupled ATPase assay, RNA-dependent. The following applies: duplex RNA; four ATP concentrations. It is filed as biochemical.

T1 sequence (P24783 whole entry S161C, the tested form may be a part): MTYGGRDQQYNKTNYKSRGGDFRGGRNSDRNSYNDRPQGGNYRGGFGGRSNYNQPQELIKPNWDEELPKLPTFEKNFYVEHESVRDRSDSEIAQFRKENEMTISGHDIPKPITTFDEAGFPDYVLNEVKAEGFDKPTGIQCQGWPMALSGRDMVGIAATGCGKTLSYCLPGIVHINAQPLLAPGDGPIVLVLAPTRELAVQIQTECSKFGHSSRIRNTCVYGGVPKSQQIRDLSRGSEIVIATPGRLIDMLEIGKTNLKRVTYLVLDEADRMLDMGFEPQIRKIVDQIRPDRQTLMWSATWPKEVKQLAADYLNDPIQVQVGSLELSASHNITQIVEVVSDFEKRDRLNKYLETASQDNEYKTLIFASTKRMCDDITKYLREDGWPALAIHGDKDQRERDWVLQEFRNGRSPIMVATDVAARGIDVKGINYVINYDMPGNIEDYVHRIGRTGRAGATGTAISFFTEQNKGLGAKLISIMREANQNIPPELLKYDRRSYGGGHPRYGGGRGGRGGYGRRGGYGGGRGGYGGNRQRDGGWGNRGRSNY

Consider `C=CC(=O)OP(=O)(O)OC[C@H]1O[C@@H](n2cnc3c(N)ncnc32)[C@H](O)[C@@H]1O` [AMP-acrylate], for which the “fraction of RNA duplex unwound” value in test [1] is reported as “duplex unwinding by ES Dbp2 (S161C) is reduced by AMP-acrylate”. In addition, the NPM labeling result in test [2] is on record as “labeling of HA-eIF4A^ES by NPM is competed by AMP-acrylate treatment”.
Take `Nc1ncnc2c1ncn2[C@@H]1O[C@H](COP(=O)(O)O)[C@@H](O)[C@H]1O` [AMP]: the Tm result in test [3] was “Saturating concentrations of AMP stabilizes DDX3^WT and DDX3^ES to the same extent”.
Consider `Nc1ncnc2c1ncn2[C@@H]1O[C@H](COP(=O)(O)OP(=O)(O)OP(=O)(O)O)[C@@H](O)[C@H]1O` [ATP], for which, in test [4], the “coupled ATPase assay, RNA-dependent” value is “both DDX3^WT and DDX3^ES hydrolyzed ATP in the presence of duplex RNA”.
